Measured values: patent US8597904B2, “Pharmaceutical compositions for the treatment of conditions responsive to proteasome inhibition” (priority 2007, dated 2013)

Experiments:
Format in all cases: cell-based, human
LAN-1 cells = assay: sulphorhodamine B (SRB) cell viability / proliferation assay
Text: (§1) The mammalian cell lines used to test the effects of syringolin A were human neuroblastoma (NB) cells with either wild type p53 (line SK-N-SH, provided by the American Type Culture Collection [ATCC], Manassas, Va.; Davidoff, et al. 1992. Oncogene 7:127-133; McKenzie, et al. 1999. Clin. Cancer Res. 5:4199-4207; Tweddle, et al. 2001. Am. J. Pathol. 158:2067-2077), mutant p53 (line LAN-1, cysteine to stop codon at residue 182, provided by Dr. Robert Seeger, University of California, Los Angeles, Calif.; Davidoff, et al. 1992. Oncogene 7:127-133; Tweddle, et al. 2001. Cancer Res. 61:8-13; Tweddle, et al. 2003. Cancer Lett. 197:93-98), or human ovarian cancer cells (line SKOV3, provided by Dr. Bonnie Warn-Cramer, Cancer Research Center of Hawaii). NB cells were maintained in RPMI 1640 (Biosource, Rockville, Md.) containing 10% (v/v) heat-inactivated fetal bovine serum (FBS) (Invitrogen, Carlsbad, Calif.), penicillin (100 IU/ml), and streptomycin (100 μg/ml) as previously described (Wallick, et al. 2005. Oncogene 24:5606-5618). SKOV3 cells were maintained in McCoy's 5A with L-glutamine (Mediatech Inc., Herndon, Va.) and containing 10% (v/v) heat-inactivated fetal bovine serum […] (Invitrogen, Carlsbad, Calif.) and gentamicin ([…]). Cells were seeded 18-24 hours before GlbA or SylA treatment and analyzed after 24 and/or 48 hours. Cell numbers were determined using a haemacytometer in the presence of trypan blue (Fisher Scientific, Pittsburgh, Pa.).
(§2) To then test the effects of syringolin A on proliferation, cells at 0.25-0.5×10^5 cells per ml were seeded in 96-well microtiter plates containing 100 μl of culture medium per well. After 24 hours, syringolin A was added to wells to a final concentration of 0.5 μm to 100 μm. Syringolin was not added to parallel samples of control cells. Cells were incubated for 48 hours, photographed, and the viability of cells (calculated as a percentage of control cell counts) was determined using the sulphorhodamine B (SRB) assay as previously reported (Skehan, et al. 1990. J. Natl. Cancer Inst. 82:1107-1112, which is incorporated herein by reference in its entirety). In brief, cell culture medium was removed from the microtiter plate and adherent cells were fixed with 10% (w/v) trichloracetic acid (TCA) for 30 minutes at room temperature. Following four washes with tap water, 100 μl of SRB (Sigma Chemical Co., St. Louis, Mo.) (0.4 g/100 ml 1% [v/v] glacial acetic acid in water) was added and the plate was then incubated for 30 minutes at room temperature, and rinsed four times with 3% (v/v) glacial acetic acid. After addition of 200 μl of 10 mM […] (not pH adjusted) to each well, the plate was incubated on an orbital shaker for 30 minutes until the SRB was uniformly dissolved. The absorption at a wavelength of 560 nm was read using an HTS 7000 Plus Bioassay Reader or a Victor 3, 1420 Multilabel Counter (PerkinElmer, Inc. Boston, Mass.). To record cell morphology with and without syringolin treatment, photomicrographs were taken of cells in 12-well plates or 96-well plates, in the presence or absence of 25 μM syringolin A, using a Nikon Diaphot inverted microscope (Nikon Corp., Tokyo, Japan) and a Carl Zeiss Axiovert 200M inverted microscope (Carl Zeiss, Goettingen, Germany), both equipped with a digital camera and computer software for image processing. Power of magnification for SK-N-SH, LAN-1, and SKOV3 cells was 20×, and for Rat-1 cells was 10×.

SK-N-SH cells = assay: as above; settings: 48 hours
Text: as §1, §2

[1] = tested on: poly (ADP-ribose) polymerase (PARP); assay: Western blot of PARP cleavage in SKOV3 cells; settings: SKOV3, 20 μM, 24 and 48 hours
Description: The induction of an apoptotic response in cancer cells by the addition of syringolin A was verified by monitoring the cleavage of poly (ADP-ribose) polymerase (PARP), a common response during apoptosis. SK-N-SH cells were cultured in the presence or absence of 20 μM syringolin A for 0, 24 and 48 hours, and cell lysates were then generated as described in Example 4 and probed for the presence of PARP by Western blotting using rabbit polyclonal anti-PARP (#9542) (diluted 1:1000) and the HRP-linked anti-rabbit secondary antibody described in Example 4. The results were representative of four independent experiments. […] The treatment of cells for 48 hours further increased the levels of cleaved PARP, whereas noncleaved PARP disappeared. In a similar manner, syringolin A induced PARP cleavage in SKOV3 cells, but noncleaved PARP was still detected 48 hours after treatment (FIG. 5B).

## CC(C)[C@H](NC(=O)N[C@H](C(=O)N[C@H]1/C=C/CCNC(=O)/C=C/[C@H](C(C)C)NC1=O)C(C)C)C(=O)O [syringolin A]
LAN-1 cells; Homo sapiens, LAN1, LAN-1, 48 hours, SRB assay, read-out: IC50 (inhibitor concentration at which cell proliferation rate is reduced by 50% relative to control)
  IC50: 20 to 25 µM
LAN-1 cells; LAN-1, 25 μM, 48 hours
  cell morphology: induced significant morphological changes
LAN-1 cells; LAN-1, 0.5 to 100 μm, 48 hours, dose-dependent
  cell viability: reduced the cell viability
SK-N-SH cells; 25 μM
  cell morphology: induced significant morphological changes
SK-N-SH cells; 0.5 to 100 μm, dose-dependent
  cell viability: reduced the cell viability
SK-N-SH cells; Homo sapiens, SRB assay, read-out: IC50 (inhibitor concentration at which cell proliferation rate is reduced by 50% relative to control)
  IC50: 20 to 25 µM
[1]
  PARP cleavage: induces apoptosis-associated PARP cleavage
